In brackets after ≈: the same amount, converted by molar mass. Activity calls are given as the source filed them. The rule behind the calls is not given here.
Key:
[1] = tested on: Enterococcus faecalis; assay: Antibacterial activity against vancomycin-resistant Enterococcus faecalis 725B after 24 hrs; format: functional
[2] = tested on: Enterococcus faecalis; assay: Antibacterial activity against vancomycin-resistant Enterococcus faecalis 342B after 24 hrs; format: functional
[3] = tested on: Enterococcus faecalis; assay: Antibacterial activity against vancomycin-resistant Enterococcus faecalis 368 after 24 hrs; format: functional; settings: Enterococcus faecalis, 368, 24 h
[4] = tested on: Enterococcus faecalis; assay: Antibacterial activity against vancomycin-susceptible Enterococcus faecalis ATCC 29212 after 24 hrs; format: functional; settings: ATCC 29212, 24 h
[5] = tested on: Enterococcus faecalis; assay: Antibacterial activity against vancomycin-resistant Enterococcus faecalis 725B assessed as compound concentration causing additive effect after 18 hrs in presence of ciprofloxacin by checkerboard assay; format: functional
[6] = tested on: Enterococcus faecalis; assay: Antibacterial activity against vancomycin-resistant Enterococcus faecalis 725B assessed as ciprofloxacin concentration causing additive effect after 18 hrs by checkerboard assay; format: functional
[7] = tested on: Enterococcus faecalis; assay: Antibacterial activity against vancomycin-resistant Enterococcus faecalis 342B assessed as compound concentration causing additive effect after 18 hrs in presence of tetracycline by checkerboard assay; format: functional
[8] = tested on: Enterococcus faecalis; assay: Antibacterial activity against vancomycin-resistant Enterococcus faecalis 342B assessed as compound concentration causing additive effect after 18 hrs in presence of vancomycin by checkerboard assay; format: functional
[9] = tested on: Enterococcus faecalis; assay: Antibacterial activity against vancomycin-resistant Enterococcus faecalis 368 assessed as compound concentration causing additive effect after 18 hrs in presence of vancomycin after 18 hrs by checkerboard assay; format: functional
[10] = tested on: Enterococcus faecalis; assay: Antibacterial activity against vancomycin-resistant Enterococcus faecalis 342B assessed as tetracycline concentration causing additive effect after 18 hrs by checkerboard assay; format: functional
[11] = tested on: Enterococcus faecalis; assay: Antibacterial activity against vancomycin-resistant Enterococcus faecalis 368 assessed as compound concentration causing additive effect after 18 hrs in presence of tetracycline after 18 hrs by checkerboard assay; format: functional
[12] = tested on: Enterococcus faecalis; assay: Antibacterial activity against vancomycin-resistant Enterococcus faecalis 368 assessed as tetracycline concentration causing additive effect after 18 hrs after 18 hrs by checkerboard assay; format: functional
[13] = tested on: Enterococcus faecalis; assay: Antibacterial activity against vancomycin-resistant Enterococcus faecalis 725B in presence of tetracycline after 18 hrs by checkerboard assay; format: functional
[14] = tested on: Enterococcus faecalis; assay: Antibacterial activity against vancomycin-resistant Enterococcus faecalis 725B in presence of vancomycin after 18 hrs by checkerboard assay; format: functional
[15] = tested on: Enterococcus faecalis; assay: Antibacterial activity against vancomycin-resistant Enterococcus faecalis 368 in presence of vancomycin after 18 hrs by checkerboard assay; format: functional
[16] = tested on: Enterococcus faecalis; assay: Antibacterial activity against vancomycin-resistant Enterococcus faecalis 342B in presence of vancomycin after 18 hrs by checkerboard assay; format: functional
[17] = tested on: Enterococcus faecalis; assay: Antibacterial activity against vancomycin-resistant Enterococcus faecalis 342B in presence of tetracycline after 18 hrs by checkerboard assay; format: functional
[18] = tested on: Enterococcus faecalis; assay: Antibacterial activity against vancomycin-resistant Enterococcus faecalis 725B in presence of ciprofloxacin after 18 hrs by checkerboard assay; format: functional
[19] = tested on: Enterococcus faecalis; assay: Antibacterial activity against vancomycin-resistant Enterococcus faecalis 368 in presence of tetracycline after 18 hrs by checkerboard assay; format: functional
[20] = tested on: Enterococcus faecalis; assay: Antibacterial activity against vancomycin-resistant Enterococcus faecalis 342B assessed as vancomycin concentration causing additive effect after 18 hrs by checkerboard assay; format: functional
[21] = tested on: Enterococcus faecalis; assay: Antibacterial activity against vancomycin-resistant Enterococcus faecalis 368 assessed as vancomycin concentration causing additive effect after 18 hrs after 18 hrs by checkerboard assay; format: functional
[22] = tested on: Enterococcus faecalis; assay: Bacteriostatic activity against vancomycin-resistant Enterococcus faecalis 342B up to 24 hrs by time kill assay; format: functional, organism-based
[23] = tested on: Enterococcus faecalis; assay: Bacteriostatic activity against vancomycin-resistant Enterococcus faecalis 725B up to 24 hrs by time kill assay; format: functional, organism-based
[24] = Cytotoxicity against human THP1 cells after 24 hrs by LDH release assay; format: cell-based; settings: THP-1 cells, read-out: LD50
[25] = Selectivity index, ratio of LD50 for human THP1 cells to MIC for vancomycin-resistant Enterococcus faecalis 342B; format: toxicity; settings: THP-1 cells, read-out: Selectivity Index
[26] = tested on: Enterococcus faecalis; assay: Antibacterial activity against vancomycin-resistant Enterococcus faecalis 368 assessed as compound concentration causing synergistic effect after 18 hrs in presence of vancomycin by checkerboard assay; format: functional
[27] = tested on: Enterococcus faecalis; assay: Antibacterial activity against vancomycin-resistant Enterococcus faecalis 368 assessed as vancomycin concentration causing synergistic effect after 18 hrs by checkerboard assay; format: functional

Compound | MBC [1] [µM] | MIC [1] [µM] | MBC [2] [µM] | MIC [2] [µM] | MBC [3] [µM] | MIC [3] [µM] | MBC [4] [µM] | MIC [4] [µM] | also measured
CC(C)[C@H](NC(=O)OCc1ccccc1)C(=O)Oc1ccc(Cl)cc1C(=O)Nc1ccc([N+](=O)[O-])cc1 | > 486 | > 486 | > 486 | > 486 | > 486 | > 486 | > 486 | > 486 | 
CC(C)[C@H](NC(=O)OCc1ccccc1)C(=O)Oc1ccc([N+](=O)[O-])cc1C(=O)Nc1ccc(Cl)cc1 | > 466 | > 466 | > 466 | > 466 | > 466 | > 466 | > 466 | > 466 | 
CN[C@H](CC(C)C)C(=O)N[C@H]1C(=O)N[C@@H](CC(N)=O)C(=O)N[C@H]2C(=O)N[C@H]3C(=O)N[C@H](C(=O)N[C@H](C(=O)O)c4cc(O)cc(O)c4-c4cc3ccc4O)[C@H](O)c3ccc(c(Cl)c3)Oc3cc2cc(c3O[C@@H]2O[C@H](CO)[C@@H](O)[C@H](O)[C@H]2O[C@H]2C[C@](C)(N)[C@H](O)[C@H](C)O2)Oc2ccc(cc2Cl)[C@H]1O [VANCOMYCIN] |  | 706 (≈ 1020 µg/mL) |  | 353 (≈ 512 µg/mL) |  | 353 (≈ 512 µg/mL) |  |  | 
CC(C)[C@H](NC(=O)c1ccc(Cl)cc1O)C(=O)Nc1ccc(Br)cc1 | > 601 | > 601 | > 601 | > 601 | > 601 | > 601 | > 601 | > 601 | 
CC(C)[C@H](NC(=O)OCc1ccccc1)C(=O)Oc1cc(Cl)ccc1C(=O)Nc1ccc(Cl)c(Cl)c1 | > 465 | > 465 | > 465 | > 465 | > 465 | > 465 | > 465 | > 465 | 
O=C(Nc1ccc([N+](=O)[O-])cc1)c1cc(Cl)ccc1O | 6.83 (≈ 2 µg/mL) | 3.42 (≈ 1 µg/mL) | 6.83 (≈ 2 µg/mL) | 1.71 (≈ 0.5 µg/mL) | > 874 | 13.7 (≈ 4 µg/mL) | 6.83 (≈ 2 µg/mL) | 0.85 (≈ 0.249 µg/mL) | Activity [5]: 0.008 µg/mL; Activity [6]: 64 µg/mL; Activity [7]: 0.5 µg/mL; Activity [8]: 0.063 µg/mL; Activity [9]: 0.063 µg/mL; Activity [10]: 16 µg/mL; Activity [11]: 1 µg/mL; Activity [12]: 16 µg/mL; FIC [13]: 1.032 - 2.125; FIC [14]: 1.063 - 1.5; FIC [15]: 0.625 - 1.25; FIC [16]: 1 - 2.25; FIC [17]: 0.75 - 1.25; FIC [18]: 1 - 1.25; FIC [19]: 0.75 - 1.25; Activity [20]: 64 µg/mL; Activity [21]: 512 µg/mL; Activity [22]: Active; Activity [23]: Active
O=C(Nc1ccccc1)c1cc(Cl)ccc1O | 516 (≈ 128 µg/mL) | 129 (≈ 32 µg/mL) | > 1030 | 64.6 (≈ 16 µg/mL) | 1030 (≈ 256 µg/mL) | 129 (≈ 32 µg/mL) | 1.01 (≈ 0.25 µg/mL) | 0.5 (≈ 0.124 µg/mL) | CC50 at 24 h [24]: > 40 µM
CC1(C)S[C@@H]2[C@H](NC(=O)[C@H](N)c3ccccc3)C(=O)N2[C@H]1C(=O)O [AMPICILLIN] | 5.72 (≈ 2 µg/mL) | 5.72 (≈ 2 µg/mL) |  |  |  |  |  |  | 
CN(C)[C@@H]1C(O)=C(C(N)=O)C(=O)[C@@]2(O)C(O)=C3C(=O)c4c(O)cccc4[C@@](C)(O)[C@H]3C[C@@H]12 [TETRACYCLINE] |  | 144 (≈ 64 µg/mL) |  | 144 (≈ 64 µg/mL) |  | 144 (≈ 64 µg/mL) |  |  | 
O=C(Nc1ccc(Cl)c(Cl)c1)c1ccc(Cl)cc1O | 25.3 (≈ 8 µg/mL) | 0.199 (≈ 0.063 µg/mL) | 25.3 (≈ 8 µg/mL) | 0.199 (≈ 0.063 µg/mL) | 202 (≈ 63.9 µg/mL) | 0.79 (≈ 0.25 µg/mL) | 1.58 (≈ 0.5 µg/mL) | 0.395 (≈ 0.125 µg/mL) | Activity [5]: 0.032 µg/mL; Activity [6]: 32 µg/mL; CC50 at 24 h [24]: 25.6 µM; Activity [8]: 0.032 µg/mL; Activity [9]: 0.25 µg/mL; FIC [13]: 1.016 - 1.504; FIC [14]: 1.031 - 2.234; FIC [15]: 1 - 1.25; FIC [16]: 0.629 - 1.128; FIC [17]: 1.016 - 1.508; FIC [18]: 0.756 - 1.25; FIC [19]: 1.016 - 1.504; Activity [20]: 256 µg/mL; selectivity ratio [25]: 128; Activity [21]: 256 µg/mL
Cc1ccc(NC(=O)[C@@H](NC(=O)c2cc(Cl)ccc2O)C(C)C)cc1 | > 709 | > 709 | > 709 | > 709 | > 709 | > 709 | > 709 | > 709 | 
CC(C)[C@H](NC(=O)OCc1ccccc1)C(=O)Oc1ccc(Cl)cc1C(=O)Nc1ccc(C(F)(F)F)cc1 | > 466 | > 466 | > 466 | > 466 | > 466 | > 466 | > 466 | > 466 | 
O=C(Nc1ccc(Cl)cc1)c1cc([N+](=O)[O-])ccc1O | > 874 | > 874 | > 874 | > 874 | > 874 | > 874 | > 874 | > 874 | CC50 at 24 h [24]: > 40 µM
COc1ccc(NC(=O)c2cc(Cl)ccc2OC(=O)[C@@H](NC(=O)OCc2ccccc2)C(C)C)cc1 | > 499 | > 499 | > 499 | > 499 | > 499 | > 499 | > 499 | > 499 | 
O=C(Nc1ccc(C(F)(F)F)cc1)c1cc(Cl)ccc1O | 25.3 (≈ 8 µg/mL) | 0.792 (≈ 0.25 µg/mL) | 25.3 (≈ 8 µg/mL) | 0.396 (≈ 0.125 µg/mL) | > 810 | 3.16 (≈ 0.998 µg/mL) | 6.34 (≈ 2 µg/mL) | 0.199 (≈ 0.0628 µg/mL) | Activity [5]: 0.125 µg/mL; Activity [6]: 32 µg/mL; Activity [26]: 0.125 µg/mL; Activity [8]: 0.5 µg/mL; Activity [9]: 0.25 µg/mL; Activity [11]: 0.25 µg/mL; Activity [27]: 128 µg/mL; Activity [12]: 8 µg/mL; FIC [13]: 1.032 - 1.5; FIC [14]: 1 - 1.25; FIC [15]: 0.375 - 1.064; FIC [16]: 0.75 - 1.25; FIC [17]: 1.008 - 1.5; FIC [18]: 0.532 - 1.125; FIC [19]: 0.625 - 1.25; Activity [20]: 256 µg/mL; Activity [21]: 32 µg/mL
CC(C)[C@H](NC(=O)c1cc(Cl)ccc1O)C(=O)Nc1ccc(C(F)(F)F)cc1 | > 617 | > 617 | > 617 | > 617 | > 617 | > 617 | 19.3 (≈ 8 µg/mL) | 19.3 (≈ 8 µg/mL) | 
